Results: US10005801B2 (priority 2016, dated 2018)
“And” between values parts separate entries of the source, which are not always exact repeats. Equal values may be shown once. “Also recorded” adds a separate entry of the source. Read-outs that look alike come from different tables or passages of the source.

Experiments:
[1] = test system: H9c2 cardiomyoblasts; assay: Anoxia/reoxygenation (A/R)-induced cellular injury, CCK-8 cell viability; type: cell-based; conditions: for protection against A/R-induced cellular damage (cell viability): H9c2, 12, 25 and 50 μM for 1 h during anoxia, then reoxygenation
Protocol: FIG. 3B. […] During anoxia various concentrations of JK-1 and JK-2 were added into medium and incubated for 1 h, respectively. Then the cells underwent a reoxygenation process. After the treatments, the CCK-8 assay was performed to detect cell viability. Data was expressed as the mean±SEM. **P<0.01 vs the control group, #P<0.05, ##P<0.01 vs A/R alone group.
The cell counting kit (CCK)-8 was applied to measure the cell viability of HeLa cells cultured in 96-well plates. After the indicated cell treatment, 100 μL of CCK-8 solution at 1:10 dilution was added to each well and cells were incubated for a further 3 h at 37° C. Absorbance was measured at 450 nm with a microplate reader. The mean optical density (OD) of 4 wells in each group was used to calculate cell viability as follows: (experiments were performed in triplicate)
The effect of H2S as a cardioprotective agent against myocardial ischemia reperfusion (MI/R) injury is known in the art. The mechanisms include reducing oxidative stress, preserving mitochondrial function, decreasing myocardial inflammation, and improving angiogenesis. […] To establish the cellular model of MI/R injury, H9c2 cardiomyoblasts were exposed to anoxia/reoxygenation (A/R) treatment, together with increasing concentrations of H2O2 (100-400 μM). […] Since the median lethal concentration of H2O2 in H9c2 cells was approximately 400 μM, this concentration was used for our studies.
The protective effects of the disclosed compounds against A/R-induced cellular damage was examined. In these experiments, H9c2 cells were pretreated with JK-1 or JK-2 at various concentrations (12, 25 and 50 μM) for 1 h during anoxia. Cells then underwent a reoxygenation process, after which cell viability was analyzed.

[2] = test system: HeLa cells; assay: H2S production in cells, WSP-5 fluorescent probe imaging; type: cell-based; conditions: 200 μM donor, 1 h
[3] = test system: myocardial ischemia/reperfusion (MI/R) injury; parameters: species or system mice; conditions: mouse, in vivo
[4] = test system: myocardial ischemia/reperfusion (MI/R) injury; assay: Circulating cardiac troponin I in MI/R murine model; conditions: 50 μg/kg (p<0.05) or 100 μg/kg (p<0.01), blood at 4 h of reperfusion
Protocol: Blood was collected at 4 hours of reperfusion, and circulating cardiac troponin I levels were measured.
Surgical occlusion of the left coronary artery (LCA), infarct size determination, and troponin I (TnI) measurements were performed as previously described. ^1C57BL6/J male mice (10-12 weeks of age) were anesthetized using pentobarbital (50 mg/kg) and ketamine (60 mg/kg) and maintained under anesthesia throughout the procedure with additional administration of pentobarbital (50 mg/kg). […] A hair removal compound was used to remove the hair on the chest of mice. The area was then cleaned using betadine and alcohol wipes alternating 3 times. The chest was opened with via a median sternotomy and the exposed ribs, muscle, and tissues were cauterized to prevent bleeding. The LCA was visualized using a dissection microscope with a fiber optic light ring, and using a 7-0 silk suture, a 3-5 mm piece of PE-10 tubing was secured over the LCA, occluding the artery. Mice were subjected to 45 min of myocardial ischemia followed by reperfusion. At the time of reperfusion, an injection of vehicle (saline), JK-1 (50 μg/kg and 100 μg/kg), or JK-2 (50 μg/kg and 100 μg/kg) was given i.c. The chest was closed in layers, closing the muscle layer first, then the skin. Mice were removed from ventilation once pedal reflex returned and it was determined that respiration was spontaneous. Mice were placed in a recovery cage and supplied with 100% O2 via a nose cone. Reperfusion was allowed for 24 h, and blood samples for TnI measurements were taken at 4 h after time of reperfusion.
Blood samples were collected via a tail vein at 4 h of reperfusion. Cardiac troponin I level was measured in serum using the Life Diagnostic high sensitivity mouse cardiac troponin I ELISA kit following the manufacturer's instructions.

[5] = test system: TAC-induced heart failure; assay: Transverse aortic constriction (TAC) heart failure model, echocardiography; type: in vivo, C57BL6/J mice; conditions: 100 μg/kg once daily i.p. from 3 weeks post-TAC, 14 weeks
Protocol: FIG. 7. Left ventricular dimensions at end-diastole (LVEDD) and at end-systole in millimeters (mm) at baseline and following heart failure in C57BL6/J mice. Mice were subjected to transverse aortic constriction (TAC) surgery to induce pressure overload hypertrophy and heart failure with reduced ejection fraction. LVEDD and LVESD were measured using high-resolution echocardiography at baseline and every 2 weeks thereafter for a period of 14 weeks. The H2S donor, (JK1) was administered starting at 3 weeks post-TAC at a dose of 100 μg/kg administered once daily via intraperitoneal injection. […] Following heart failure the heart dilates and this adverse remodeling response contributes to reduced cardiac function.
FIG. 8. Interventricular septum thickness measured at end-diastole (IVSd) and at end-systole (IVSs) in millimeters (mm) at baseline and following heart failure in C57BL6/J mice. Mice were subjected to transverse aortic constriction (TAC) surgery to induce pressure overload hypertrophy and heart failure with reduced ejection fraction. IVSd and IVSs were measured using high-resolution echocardiography at baseline and every 2 weeks thereafter for a period of 14 weeks. The H2S donor, (JK1) was administered starting at 3 weeks post-TAC at a dose of 100 μg/kg administered once daily via intraperitoneal injection. […] Myocardial wall thinning is a significant pathological component of heart failure.
(§1) FIG. 9. Left ventricular (LV) posterior wall thickness (PW) measured at end-diastole (d) and at end-systole (s) in millimeters (mm) at baseline and following heart failure in C57BL6/J mice. Mice were subjected to transverse aortic constriction (TAC) surgery to induce pressure overload hypertrophy and heart failure with reduced ejection fraction LVPWd and LVPWs were measured using high-resolution echocardiography at baseline and every 2 weeks thereafter for a period of 14 weeks. The H2S donor, (JK1) was administered starting at 3 weeks post-TAC at a dose of 100 μg/kg administered once daily via intraperitoneal injection.
as §1, with “10.” for “9.”, “ejection fraction (EF)” for “posterior wall thickness (PW) measured at end-diastole (d)”, “fractional shortening (FS)” for “at end-systole (s) in millimeters (mm)”, “fraction. LVEF (%)” for “fraction LVPWd”, “LVFS (%)” for “LVPWs”, “injection. LVEF and LVFS are clinically utilized measures of cardiac function.” for “injection.”

[6] = type: physicochemical; conditions: for H2S release under weak acidic pH: pH 5 and 6, PBS buffer; for H2S release under neutral and weak basic pH: pH 7.4 and 8, PBS buffer
[7] = Circulating free H2S level, gas chromatography and chemiluminescence; type: in vivo, mice; conditions: plasma, 15 minutes after administration, 50 μg/kg (p<0.05) or 100 μg/kg (p<0.001)
Protocol: FIG. 5. […] Blood was collected 15 minutes after the administration of JK-2. Circulating free H2S levels were measured from plasma samples using gas chromatography and chemiluminesence methods.

[8] = 100 μM donor, PBS buffer pH 5.0, 6.0, 7.4, 8.0, time-dependent

Structure (SMILES) | H2O2 median lethal concentration ([1]; H9c2 cells, A/R treatment together with H2O2 (100-400 μM)) | H2S production in cells (WSP-5 fluorescence) [2] | myocardial infarct size [3] | reduction of infarct size per area-at-risk (INF/AAR) [3] | circulating cardiac troponin I level [4] | protection against A/R-induced cellular damage (cell viability) [1] | interventricular septum thickness (IVSd, IVSs) [5] | left ventricular dilatation (LVEDD, LVESD) [5] | left ventricular ejection fraction (LVEF) and fractional shortening (LVFS) [5] | left ventricular posterior wall thickness (LVPWd, LVPWs) [5] | H2S release [6, 8] | H2S release under weak acidic pH [6] | H2S release under neutral and weak basic pH [6] | circulating free H2S level [7] | H2S release ([6]; pH 5)
OO [H2O2, reference compound] | approximately 400 μM | – | – | – | – | – | – | – | – | – | – | – | – | – | –
O=C(O)CNP(O)(=S)c1ccccc1 (centres unmarked) [JK-1] | – | much weaker fluorescence | significantly reduced | 43% and 64% | significantly lowered; also recorded: significantly reduced | significant attenuation of A/R induced damage | significantly preserved IVSd and IVSs | significantly reduced left ventricular dilatation | significantly preserved both LVEF and LVFS | significantly preserved left ventricular wall thickness | much-enhanced H2S releasing ability | only released H2S under weak acidic pH | barely detectable H2S | – | –
O=C([O-])C(Cc1ccccc1)NP([O-])(=S)c1ccccc1.[Li+].[Li+] (centres unmarked) [JK-2] | – | strong fluorescence | significantly reduced | 55% and 56% | significantly lowered; also recorded: significantly reduced | significant attenuation of A/R induced damage | – | – | – | – | much-enhanced H2S releasing ability | much faster release | slow and sustained H2S release | significant increase; also recorded: significantly higher | –
O=C([O-])C1CCCN1P([O-])(=S)c1ccccc1.[Li+].[Li+] (centres unmarked) [JK-5] | – | – | – | – | – | – | – | – | – | – | – | – | – | – | not to release H2S at all
